Data as given in patent publication US8586747B2, “3,3-dimethyl tetrahydroquinoline derivatives” (Hoffmann-La Roche Inc., priority 2010, dated 2013).

What follows are compounds tested on AMP-activated protein kinase (AMPK) (assay: ADP Quest assay for AMPK activators). Settings: fold of AMPK activation to phosphorylate SAMS peptide without and with an activator at the concentration of 30 µM.
Assay type: biochemical
Set-up: key: fold AMPK activation with vs without activator at 30 µM
Experimental: ADP Quest™ Assay for AMPK Activators
This method evaluates AMP-activated protein kinase (AMPK) activity through detecting the accumulation of ADP product using an ADP Quest kit and determining the E30 values of the small molecular AMPK activators. ADP Quest kit (DiscoveRx, Fremont, Calif.) is stored at −20° C. before use. Before an experiment, thaw the kit (include assay buffer, ADP standard solution, reagent A and reagent B) and equilibrate to room temperature. Dispense the ADP Quest reagents into single-use aliquots and store at −20° C. The compound concentrations typically range from 0 µM to 100 µM by 2-fold dilution. AMP concentrations range from […] to 1 mM as the reference control. In an assay, thaw and equilibrate the assay buffer, reagent A and reagent B to room temperature for 30 minutes prior to use. Mix ATP, SAMS peptide substrate and compound, and place them into the 384-well assay plate. Add reagent A and B based on the assay kit protocol. Incubate the assay plate at room temperature for 30 minutes after addition the mixture followed by the addition of AMPK protein (Invitrogen, CA) to initiate the AMPK phosphorylation reaction. At the same time, reactions with AMPK activator AMP in the absence of enzyme is included as blank control. The reaction fluorescence signal is monitored and recorded on Envision in kinetic mode with the excitation wavelength of 530 nm and emission wavelength of 590 nm. The E30 value, defined as the fold of AMPK activation to phosphorylate SAMS peptide without and with an activator at the concentration of 30 µM, is calculated and analyzed using Prism 5.0.

Row | E30 | Compound
1 | 1.22 | CC1(C)Cc2cc(C(=O)NS(=O)(=O)C3CC3)ccc2NC1c1ccc(F)c(N2CCOCC2)c1 (stereo not drawn) [Example 58, Cyclopropanesulfonic acid [2-(4-fluoro-3-morpholin-4-yl-phenyl)-3,3-dimethyl-1,2,3,4-tetrahydro-quinoline-6-carbonyl]-amide]
2 | 1.2 | Cc1ccc(F)cc1C1Nc2ccc(C(=O)NS(=O)(=O)C3CC3)cc2CC1(C)C (stereo not drawn) [Example 60, Cyclopropanesulfonic acid [2-(5-fluoro-2-methyl-phenyl)-3,3-dimethyl-1,2,3,4-tetrahydro-quinoline-6-carbonyl]-amide]
3 | 1.61 | CC1(C)Cc2cc(C(=O)NS(=O)(=O)C3CC3)ccc2NC1c1cc(F)cc(N2CCCC2)c1 (stereo not drawn) [Example 62, Cyclopropanesulfonic acid [2-(3-fluoro-5-pyrrolidin-1-yl-phenyl)-3,3-dimethyl-1,2,3,4-tetrahydro-quinoline-6-carbonyl]-amide]
4 | 1.48 | Cc1cc(C2Nc3ccc(C(=O)NS(=O)(=O)C4CC4)cc3CC2(C)C)cc(N2CCOCC2)c1 (stereo not drawn) [Example 64, Cyclopropanesulfonic acid [3,3-dimethyl-2-(3-methyl-5-morpholin-4-yl-phenyl)-1,2,3,4-tetrahydro-quinoline-6-carbonyl]-amide]
5 | 1.42 | COc1cc(C2Nc3ccc(C(=O)O)cc3CC2(C)C)cc(N2CCOCC2)c1 (stereo not drawn) [Example 66, 2-(3-Methoxy-5-morpholin-4-yl-phenyl)-3,3-dimethyl-1,2,3,4-tetrahydro-quinoline-6-carboxylic acid]
6 | 1.38 | COc1cc(C2Nc3ccc(C(=O)NS(=O)(=O)C4CC4)cc3CC2(C)C)cc(N2CCOCC2)c1 (stereo not drawn) [Example 67, Cyclopropanesulfonic acid [2-(3-methoxy-5-morpholin-4-yl-phenyl)-3,3-dimethyl-1,2,3,4-tetrahydro-quinoline-6-carbonyl]-amide]
7 | 1.28 | CC1(C)Cc2cc(C(=O)NS(C)(=O)=O)ccc2NC1c1cc(C#N)cc(N2CCOCC2)c1 (stereo not drawn) [Example 69, N-[2-(3-Cyano-5-morpholin-4-yl-phenyl)-3,3-dimethyl-1,2,3,4-tetrahydro-quinoline-6-carbonyl]-methanesulfonamide]
8 | 1.23 | CC1(C)Cc2cc(C(=O)NS(=O)(=O)C3CC3)ccc2NC1c1cc(F)cc(C2CCCCC2)c1 (stereo not drawn) [Example 70, Cyclopropanesulfonic acid [2-(3-cyclohexyl-5-fluoro-phenyl)-3,3-dimethyl-1,2,3,4-tetrahydro-quinoline-6-carbonyl]-amide]
9 | 1.22 | CC1(C)Cc2cc(C(=O)O)ccc2NC1c1cc(F)cc(N2CCNCC2)c1 (stereo not drawn) [Example 71, 2-(3-Fluoro-5-piperazin-1-yl-phenyl)-3,3-dimethyl-1,2,3,4-tetrahydro-quinoline-6-carboxylic acid]
10 | 1.21 | CC1(C)Cc2cc(C(=O)NS(=O)(=O)C3CC3)ccc2NC1c1ccc(N2CCOCC2)cc1 (stereo not drawn) [Example 73, Cyclopropanesulfonic acid [3,3-dimethyl-2-(4-morpholin-4-yl-phenyl)-1,2,3,4-tetrahydro-quinoline-6-carbonyl]-amide]
11 | 1.19 | CC(C)N1CCN(c2cc(F)cc(C3Nc4ccc(C(=O)NS(C)(=O)=O)cc4CC3(C)C)c2)CC1 (stereo not drawn) [Example 75, N-{2-[3-Fluoro-5-(4-isopropyl-piperazin-1-yl)-phenyl]-3,3-dimethyl-1,2,3,4-tetrahydro-quinoline-6-carbonyl}-methanesulfonamide]
12 | 1.79 | COC(=O)c1cc(Cl)cc2c1NC(c1cccc(NC(C)(C)C(=O)O)c1)C(C)(C)C2 (stereo not drawn) [Example 78, 2-[3-(1-Carboxy-1-methyl-ethylamino)-phenyl]-6-chloro-3,3-dimethyl-1,2,3,4-tetrahydro-quinoline-8-carboxylic acid methyl ester]
13 | 1.33 | CNC(=O)C(C)(C)Nc1cccc(C2Nc3c(cc(Cl)cc3C(=O)O)CC2(C)C)c1 (stereo not drawn) [Example 79, 6-Chloro-3,3-dimethyl-2-[3-(1-methyl-1-methylcarbamoyl-ethylamino)-phenyl]-1,2,3,4-tetrahydro-quinoline-8-carboxylic acid]
14 | 1.72 | CC(C)(Nc1cccc(C2Nc3c(cc(Cl)cc3C(=O)O)CC2(C)C)c1)C(=O)O (stereo not drawn) [Example 80, 2-[3-(1-Carboxy-1-methyl-ethylamino)-phenyl]-6-chloro-3,3-dimethyl-1,2,3,4-tetrahydro-quinoline-8-carboxylic acid]
15 | 1.5 | Cc1ccccc1N1CCN(c2cccc(C3Nc4c(cc(Cl)cc4C(=O)O)CC3(C)C)c2)CC1 (stereo not drawn) [Example 82, 6-Chloro-3,3-dimethyl-2-[3-(4-o-tolyl-piperazin-1-yl)-phenyl]-1,2,3,4-tetrahydro-quinoline-8-carboxylic acid]

Continued, compound first:

Row | Compound | E30
16 | CC1(C)Cc2cc(C(=O)O)ccc2NC1c1cc(Cl)cc(N2CCOCC2)c1 (stereo not drawn) [Example 55, 2-(3-Chloro-5-morpholin-4-yl-phenyl)-3,3-dimethyl-1,2,3,4-tetrahydro-quinoline-6-carboxylic acid] | 1.28
17 | CC1(C)Cc2cc(C(=O)NS(=O)(=O)C3CC3)ccc2NC1c1cc(Cl)cc(N2CCOCC2)c1 (stereo not drawn) [Example 56, Cyclopropanesulfonic acid [2-(3-chloro-5-morpholin-4-yl-phenyl)-3,3-dimethyl-1,2,3,4-tetrahydro-quinoline-6-carbonyl]-amide] | 1.26
18 | CC1(C)Cc2cc(C(=O)NS(C)(=O)=O)ccc2NC1c1cc(Cl)cc(N2CCOCC2)c1 (stereo not drawn) [Example 57, N-[2-(3-Chloro-5-morpholin-4-yl-phenyl)-3,3-dimethyl-1,2,3,4-tetrahydro-quinoline-6-carbonyl]-methanesulfonamide] | 1.25
19 | CC1(C)Cc2cc(C(=O)NS(C)(=O)=O)ccc2NC1c1ccc(F)c(N2CCOCC2)c1 (stereo not drawn) [Example 59, N-[2-(4-Fluoro-3-morpholin-4-yl-phenyl)-3,3-dimethyl-1,2,3,4-tetrahydro-quinoline-6-carbonyl]-methanesulfonamide] | 1.2
20 | CC1(C)Cc2cc(C(=O)NS(C)(=O)=O)ccc2NC1c1cc(F)cc(N2CCCC2)c1 (stereo not drawn) [Example 61, N-[2-(3-Fluoro-5-pyrrolidin-1-yl-phenyl)-3,3-dimethyl-1,2,3,4-tetrahydro-quinoline-6-carbonyl]-methanesulfonamide] | 1.61
21 | Cc1cc(C2Nc3ccc(C(=O)O)cc3CC2(C)C)cc(N2CCOCC2)c1 (stereo not drawn) [Example 63, 3,3-Dimethyl-2-(3-methyl-5-morpholin-4-yl-phenyl)-1,2,3,4-tetrahydro-quinoline-6-carboxylic acid] | 1.56
22 | Cc1cc(C2Nc3ccc(C(=O)NS(C)(=O)=O)cc3CC2(C)C)cc(N2CCOCC2)c1 (stereo not drawn) [Example 65, N-[3,3-Dimethyl-2-(3-methyl-5-morpholin-4-yl-phenyl)-1,2,3,4-tetrahydro-quinoline-6-carbonyl]-methanesulfonamide] | 1.46
23 | COc1cc(C2Nc3ccc(C(=O)NS(C)(=O)=O)cc3CC2(C)C)cc(N2CCOCC2)c1 (stereo not drawn) [Example 68, N-[2-(3-Methoxy-5-morpholin-4-yl-phenyl)-3,3-dimethyl-1,2,3,4-tetrahydro-quinoline-6-carbonyl]-methanesulfonamide] | 1.33
24 | CC1(C)Cc2cc(C(=O)O)ccc2NC1c1ccc(N2CCOCC2)cc1 (stereo not drawn) [Example 72, 3,3-Dimethyl-2-(4-morpholin-4-yl-phenyl)-1,2,3,4-tetrahydro-quinoline-6-carboxylic acid] | 1.21
25 | CC1(C)Cc2cc(C(=O)NS(C)(=O)=O)ccc2NC1c1ccc(N2CCOCC2)cc1 (stereo not drawn) [Example 74, N-[3,3-Dimethyl-2-(4-morpholin-4-yl-phenyl)-1,2,3,4-tetrahydro-quinoline-6-carbonyl]-methanesulfonamide] | 1.19
26 | CC1(C)Cc2cc(C(=O)O)ccc2NC1c1cc(F)cc(N2CCCC2=O)c1 (stereo not drawn) [Example 76, 2-[3-Fluoro-5-(2-oxo-pyrrolidin-1-yl)-phenyl]-3,3-dimethyl-1,2,3,4-tetrahydro-quinoline-6-carboxylic acid] | 1.47
27 | CC1(C)Cc2cc(C(=O)NS(C)(=O)=O)ccc2NC1c1cc(F)cc(N2CCCC2=O)c1 (stereo not drawn) [Example 77, N-{2-[3-fluoro-5-(2-oxo-pyrrolidin-1-yl)-phenyl]-3,3-dimethyl-1,2,3,4-tetrahydro-quinoline-6-carbonyl}-methanesulfonamide] | 1.42
28 | CC(=O)N1CCN(c2cccc(C3Nc4c(cc(Cl)cc4C(=O)O)CC3(C)C)c2)CC1 (stereo not drawn) [Example 81, 2-[3-(4-Acetyl-piperazin-1-yl)-phenyl]-6-chloro-3,3-dimethyl-1,2,3,4-tetrahydro-quinoline-8-carboxylic acid] | 2.85
29 | CC(C)(C)c1ccc(-c2cccc(C3Nc4ccc(C(=O)NS(C)(=O)=O)cc4CC3(C)C)c2)cc1 (stereo not drawn) [Example 83, N-[2-(4′-tert-Butyl-biphenyl-3-yl)-3,3-dimethyl-1,2,3,4-tetrahydro-quinoline-6-carbonyl]-methanesulfonamide] | 1.35
30 | CC(C)Oc1ccc(-c2cccc(C3Nc4ccc(C(=O)O)cc4CC3(C)C)c2)cc1 (stereo not drawn) [Example 84, 2-(4′-Isopropoxy-biphenyl-3-yl)-3,3-dimethyl-1,2,3,4-tetrahydro-quinoline-6-carboxylic acid] | 1.25
